The source of these data is publication PMC8824275, “Gastrointestinal Stability and Cytotoxicity of Bacteriocins From Gram-Positive and Gram-Negative Bacteria: A Comparative in vitro Study” (Frontiers in Microbiology, 2022).

Converted amounts (≈) assume the structure as drawn. Like-named read-outs stand apart in the source and are kept apart here. Bridge positions count the residues as written; N and C are the ends. Square brackets hold non-standard residues; d marks the D form. Ends that are not written are not given here. Peptide text beside a SMILES is read from it. Abu = CC[C@H](N)C(=O)O; Dhb = C/C=C(\N)C(=O)O; Dha = C=C(N)C(=O)O

The term MIC denotes the lowest concentration found to suppress growth. Higher therefore signals weaker potency. As usually defined, the EC50 is the concentration that produces a half-maximal response. The IC50 is the concentration at which inhibition is half-maximal.

Data set [1] has as its system S. aureus ATCC 6538. It counts as cell-based, Staphylococcus aureus. The settings on record: for Total activity: broth microdilution. An excerpt: (§1) Microcin J25 was produced by Escherichia coli MC4100 carrying the plasmid PTUC 202 ([Solbiati et al., 1999]). For the antibacterial activity of pure compounds and digestion mixture, Listeria ivanovii HPB28 (Canada Health Protection Branch) was used as indicator strain for nisin and pediocin PA-1, while Staphylococcus aureus ATCC 6538 (ATCC) and Salmonella enterica subsp. enterica serovar Newport ATCC 6962 (later referred to as S. Newport, ATCC) were used as indicator strains for bactofencin A (M14L, M18L) and microcin J25, respectively. L. ivanovii HPB28 and S. aureus were cultured in Tryptic Soy (Difco Laboratories, Spark, MD, United States) supplemented with 0.6% yeast extract (TSBYE), at 30 and 37°C, respectively. S. Newport was cultured at 37°C overnight in Luria-Bertani (LB) (Difco Laboratories, Spark, MD, United States). All strains were maintained at –80°C as stock cultures in their corresponding culture media supplemented with 20% glycerol, and propagated twice at 24 h intervals before use.
(§2) Quantitative determination of inhibitory activity of bacteriocins was carried out using the broth microdilution method as described by [Ben Said et al. (2020)]. Two-fold serial dilutions of bacteriocins (125 μL) were prepared in an appropriate medium in a clear 96-well flat-bottom microtiter plate. Indicator strains were diluted to 10^5 CFU/mL, from which 50 μL were added to each well. The microtiter plates were incubated for 24 h under appropriate conditions, and optical densities were recorded at 595 nm (Infinite M200, Tecan, Switzerland). Control wells contained untreated culture and appropriate medium (blanks). The number of inhibition wells was noted and inhibition activities were calculated in μg/mL.

The test system of data set [2] is S. Newport ATCC 6962. It counts as cell-based, Salmonella enterica subsp. enterica serovar Newport. The settings on record: for Total activity: broth microdilution.
Text: as §1, §2

For data set [3] the following is noted: cited from earlier work. An excerpt: There are limited number of studies regarding the stability of bacteriocins in the GI tract. It has been shown that bacteriocins can be degraded by proteolytic enzymes such as pepsin, trypsin and chymotrypsin in the stomach or intestine ([Fernandez et al., 2013]). […] However, in the current study, pediocin PA-1(M31L) and bactof ...

In data set [4] the test system is rat erythrocytes. The data set is described as follows: Hemolytic activity. It counts as cell-based. As to conditions: 0.4 to 400 μg/mL, 45 min, 37°C. The protocol:
The experiment was performed after prior approval from the local ethics committee by TransBIOTech laboratory. Hemolytic potential of bacteriocins was evaluated according to [FDA (2005)]. Rat blood was collected into a heparinized tube and added in a 1:1 volume (100 μL) to serially diluted compounds (in 100 μL PBS), in a conical 96-well plate. 10% Triton X-100 and PBS were used as a positive and negative controls, respectively. The plates were sealed and incubated for 45 min at 37°C prior to centrifugation at 2,000 g for 10 min to pellet red blood cells. The supernatant was then transferred into clear 96-well plates and the absorbance was read at 540 nm (hemoglobin). The percentage of hemolysis was calculated as follow, with RBC standing for red blood cells:
%Hemolysis=AbsorbanceofRBCtreatedwithbacteriocins-AbsorbanceofRBCtreatedwithPBS/AbsorbanceofRBCtreatedwithTritonX100-AbsorbanceofRBCtreatedwithPBS

The subject of data set [5] is human red blood cells. As to conditions: 750 μM (2.5 mg/mL), ref Begde et al., 2011; cited from earlier work. As to the method:
(§3) Hemolytic activity is used for initial toxicity assessment and estimation of therapeutic index. Nisin remains to be the most studied bacteriocin, while there are very few data available for the other bacteriocins. […] Hemolytic activity of nisin A (Nisaplin®) at 3.35 μg/mL concentration was reported to be 6% in human red blood cells. In another study by [Maher and McClean (2006)], hemolytic activity exerted by 230 μM (771 μg/mL) nisin A (Nutrition 21) was shown ...

Data set [6] has as its system Vero cells. As to conditions: cited from earlier work. The text has this: (§4) To the best of our knowledge, this is the first study that evaluates the cytotoxicity of several bacteriocins with different structures, mechanisms of actions and spectra of inhibitory activity.
Data set [7] relates to Caco-2. The settings on record: MTT assay, ref Maher and McClean, 2006; cited from earlier work.
Text: as §4

The test system of data set [8] is HT29 (epithelial cells). The settings on record: MTT assay, ref Maher and McClean, 2006; cited from earlier work.
Text: as §4

For data set [9], the system named is HepG2 cells. The settings on record: ref Paiva et al., 2012; cited from earlier work.
Text: as §4

The test system of data set [10] is MCF-7 cells. The settings on record: ref Paiva et al., 2012; cited from earlier work.
Text: as §4

Data set [11] has as its system sheep erythrocytes. The settings on record: sheep blood cells, 33.75 μM (113 μg/mL); ref Paiva et al., 2012; cited from earlier work. The protocol:
as §3

In data set [12] the test system is human cells relevant to oral cavity. As to conditions: concentration up to 200 μg/mL; ref Shin et al. (2015); cited from earlier work.
Data set [13] deals with L. ivanovii HPB 28. It counts as cell-based, Listeria ivanovii. The settings on record: broth microdilution.
Text: as §1, §2

Data set [14] concerns SV40 cells. As to conditions: 700 AU/mL (approximately 10–20 mg/mL), trypan blue, ref Murinda et al., 2003; cited from earlier work.
Text: as §4

[15] abbreviates: after oral conditions (SSF, 2 min, 37°C).
[16] abbreviates: pure compound without GI digestion, 24 h, OD 595 nm.
Setting [17] is: TIM-1 dynamic model, ref Kheadr et al., 2010.

Take `CC(C)C[C@@H]1NC(=O)CNC(=O)[C@H]([C@@H](C)O)NC(=O)[C@@H]2CCCN2C(=O)[C@H](CC(C)C)NC(=O)CNC(=O)[C@H](CC(N)=O)NC(=O)[C@H](CC(N)=O)NC(=O)[C@H](Cc2ccc(O)cc2)NC(=O)[C@H](C(C)C)NC(=O)[C@H](CCCNC(=N)N)NC(=O)[C@@H](NC(=O)[C@H](CCCNC(=N)N)NC(=O)[C@H](Cc2c[nH]cn2)NC(=O)[C@H](CCCCN)NC(=O)[C@H](CCCCN)NC(=O)[C@H](CCCNC(=N)N)NC(=O)[C@@H](N)CCCCN)CSSC[C@@H](C(N)=O)NC(=O)[C@H](Cc2c[nH]c3ccccc23)NC(=O)[C@H](CCCNC(=N)N)NC(=O)[C@H](Cc2ccc(O)cc2)NC1=O` [bactofencin A(M14L, M18L)] (H-KRKKHRCRVYNNGLPTGLYRWC-NH2; disulfide 7-22 (inferred); N-terminus and C-terminus assumed): in data set [1] (ATCC 6538, 24 h), the MIC was found to be 5 µg/mL (≈ 1.82 µM). The Total activity in data set [1] (setting [15]) and in [1] (setting [16]) was 10.4 AU/mL in each case.
Turning to `CC[C@H](C)[C@H](NC(=O)CNC(=O)[C@@H](NC(=O)[C@H](Cc1ccccc1)NC(=O)[C@H](Cc1ccc(O)cc1)NC(=O)[C@@H]1CCC(=O)NCC(=O)NCC(=O)N[C@@H](C)C(=O)NCC(=O)N[C@@H](Cc2c[nH]cn2)C(=O)N[C@@H](C(C)C)C(=O)N2CCC[C@H]2C(=O)N1)C(C)C)C(=O)NCC(=O)N[C@H](C(=O)N1CCC[C@H]1C(=O)N[C@H](C(=O)N[C@@H](CO)C(=O)N[C@@H](Cc1ccccc1)C(=O)N[C@@H](Cc1ccc(O)cc1)C(=O)NCC(=O)O)[C@@H](C)CC)[C@@H](C)O` [microcin J25] (GGAGHVPEYFVGIGTPISFYG-OH; lactam N-8 (inferred); C-terminus assumed), the minimal inhibitory concentration (MIC) in [2] (ATCC 6962, 24 h) was found to be 0.0356 µg/mL (≈ 0.0169 µM). Besides, the Total activity in data set [2] (after gastric conditions (SGF, pepsin 2000 U/mL, lipase 60 U/mL, pH 3, 90 min, 37°C)) amounted to 0.0712 AU/mL; in data set [2] (setting [15]) it was 0.0712 AU/mL; in [2] (after small intestinal conditions (SIF, bile salt 10 mmol/L, pancreatin 100 U/mL, pH 7, 2 h, 37°C)) it was 0.356 AU/mL; in [2] (setting [16]) it was 0.0712 AU/mL.
As to `CC[C@H](C)[C@H](NC(=O)CNC(=O)[C@@H](NC(=O)[C@H](Cc1ccccc1)NC(=O)[C@H](Cc1ccc(O)cc1)NC(=O)[C@@H]1CCC(=O)NCC(=O)NCC(=O)N[C@@H](C)C(=O)NCC(=O)N[C@@H](Cc2cnc[nH]2)C(=O)N[C@@H](C(C)C)C(=O)N2CCC[C@H]2C(=O)N1)C(C)C)C(=O)NCC(=O)N[C@H](C(=O)N1CCC[C@H]1C(=O)N[C@H](C(=O)N[C@@H](CO)C(=O)N[C@@H](Cc1ccccc1)C(=O)N[C@@H](Cc1ccc(O)cc1)C(=O)NCC(=O)O)[C@@H](C)CC)[C@@H](C)O` [microcin J25] (GGAGHVPEYFVGIGTPISFYG-OH; lactam N-8), in data set [3], the “Degradation upon exposure to pancreatin (small intestine)” value is reported as “only partially degraded” and the “Resistance to the proteolytic enzymes in the stomach” value is recorded as “highly resistant”.
As to “KYYGNGVTCGKHSCSVDWGKATTCIINNGALAWATGGHQGNHKC-OH (disulfide 9-14, 24-44) [pediocin PA-1(M31L)]”, the “Concentration above which dose-dependent increase in percentage of hemolysis was shown” value in [4] was “higher than 50 μg/mL”.
For nisin, the Relative hemolysis in data set [5] is 10%.
With “nisin A (I[Dhb]AI[Dha]LC[Abu]PGCK[Abu]GALMGCNMK[Abu]A[Abu]CHCSIHV[Dha]K; thioether (positions not given here); not fully specified (residues 7, 11, 19, 26, 28, bridges); UniProt P13068 24-57, looked up) [nisin A (Nisaplin®), commercial nisin A product Nisaplin (Danisco)]”, in data set [6] (LDH cytotoxicity assay, ref Vaucher et al. (2010)), the EC50 was 0.62 µg/mL.
On to “nisin A (I[Dhb]AI[Dha]LC[Abu]PGCK[Abu]GALMGCNMK[Abu]A[Abu]CHCSIHV[Dha]K; thioether (positions not given here); not fully specified (residues 7, 11, 19, 26, 28, bridges); UniProt P13068 24-57, looked up) [nisin A (Nutrition 21), commercial nisin A (Nutrition 21)]”, for which the IC50 in data set [7] was 385.7 µg/mL; in [8], 301.5 µg/mL.
In the case of nisin C [nisin C (Chrisin®)], the “Concentration reducing viability to 50%” value in data set [9] was 352 µg/mL; in data set [10], 352 µg/mL; in [6] (ref Paiva et al., 2012), 45.21 µg/mL. For the same compound, in [11], the Hemolysis was 6.6%.
For the compound “nisin Z (I[Dhb]AI[Dha]LC[Abu]PGCK[Abu]GALMGCNMK[Abu]A[Abu]CNCSIHV[Dha]K; thioether (positions not given here); not fully specified (residues 7, 11, 19, 26, 28, bridges); UniProt P29559 24-57, looked up) [nisin Z (Handary, Brussels, Belgium), commercial nisin Z from Handary]”, in data set [12], the Toxic effect entry is listed as “did not exert any toxic effect”.
As for “pediocin PA-1 (KYYGNGVTCGKHSCSVDWGKATTCIINNGAMAWATGGHQGNHKC; disulfide 9-14, 24-44; UniProt P29430 19-62, looked up) [wild-type bacteriocin naturally produced by Pediococcus acidilactici, literature data]”, the Total activity in [13] (setting [15]) and in data set [13] (setting [16]) was 0.18 AU/mL in each case. Moreover, the “Cell viability reduced to” value in data set [14] is 36%. The “Stability in the small intestine” value in data set [3] (setting [17]) is listed as “completely degraded”. In data set [3] (setting [17]), the “Stability in the stomach” value is recorded as “stable”.
